One experiment has as its target KRAS WT (Homo sapiens (Human), UniProt P01116+P62937). The experiment can be described thus: Ras-Raf disruption/FRET/MOA assay (BRAF RBD, Cyclophilin A). It is filed as biochemical. Conditions: read-out: KRAS WT FRET data IC50. A digest of the protocol:
(§1)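 First, 25 μM Cyclophilin A, 12.5 nM His6-Ras-GMPPNP and 50 nM GST-BRAF RBD are mixed with diluted compound at pH 7.3. Next, 3 h at 25° C. Then 10 nM anti-His Eu-W1024 plus 50 nM anti-GST allophycocyanin for 1.5 h before TR-FRET reading.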

In another experiment the target is KRAS G12D (Homo sapiens (Human), UniProt P01116+P62937, G12D). The experiment is described as above. In kind it is biochemical. The note with it: read-out: KRAS G12D FRET IC50. A digest of the protocol: as §1
Another experiment deals with KRAS G12V (Homo sapiens (Human), UniProt P01116+P62937, G12V). The description is as above. It is filed as biochemical. The note with it: read-out: KRAS G12V FRET IC50. A digest of the protocol:
as §1

The next experiment deals with KRAS G12S (Homo sapiens (Human), UniProt P01116+P62937, G12S). Described as above. It is filed as biochemical. The note with it: read-out: KRAS G12S FRET IC50. A digest of the protocol:
as §1

The target in another experiment is NRAS Q61R (Homo sapiens (Human), UniProt P01111+P62937, Q61R). Described as above. It is filed as biochemical. A digest of the protocol:
(§2)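 TR-FRET readout: anti-His Eu-W1024 (10 nM) and anti-GST allophycocyanin (50 nM) added after 3 h, 25° C compound incubation, then 1.5 h more. Decrease in FRET ratio versus DMSO wells marks Ras:RAF disruption; IC50 reported.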

A further experiment deals with KRAS G12C (Homo sapiens (Human), UniProt P01116+P62937, G12C). The experiment is described as above. It is filed as biochemical. Conditions: read-out: KRAS G12C FRET IC50. A digest of the protocol:
as §1

A further experiment concerns the target KRAS G13D (Homo sapiens (Human), UniProt P01116+P62937, G13D). The experiment is described as above. It is filed as biochemical. Conditions: read-out: KRAS G13D FRET data IC50. The method in brief: as §1
Another experiment has as its target NRAS G12C (Homo sapiens (Human), UniProt P01111+P62937, G12C). The experiment is described as above. In kind it is biochemical. The note with it: read-out: NRAS G12C FRET data IC50. A digest of the protocol:
as §2

Another experiment has as its target KRAS Q61H (Homo sapiens (Human), UniProt P01116+P62937, Q61H). Described as above. In kind it is biochemical. A digest of the protocol: as §1
The target of another experiment is NRAS Q61K (Homo sapiens (Human), UniProt P01111+P62937, Q61K). Described as above. It is filed as biochemical. A digest of the protocol: as §2
A further experiment concerns the target NRAS WT (Homo sapiens (Human), UniProt P01111+P62937). Described as above. It is filed as biochemical. A digest of the protocol: as §2
The next experiment addresses KRAS G13C (Homo sapiens (Human), UniProt P01116+P62937, G13C). The experiment is described as above. In kind it is biochemical. The note with it: read-out: KRAS G13C FRET IC50. The method in brief: as §1
Another experiment deals with NCI-H358 (K-Ras G12C). The experiment can be described thus: CellTiter-Glo cell viability assay, NCI-H358. Conditions: Homo sapiens, NCI-H358, 120 h, 5-day treatment; read-out: H358 Cell Viability assay data (K-Ras G12C, IC50). In kind it is cell-based, human. The method in brief:
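Cells seeded, compound added directly to plates; day 5: plates to RT ~30 min, CellTiter-Glo luminescence; (sample/avg DMSO)*100; 4-parameter fit.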

Experiment [1] has as its system Capan-1 cells (K-Ras G12V). The experiment can be described thus: CellTiter-Glo cell viability, Capan-1. In kind it is cell-based, human. The note with it: Homo sapiens, CAPAN-1, 120 h, K-Ras G12V, 5-day treatment; read-out: Capan-1 Cell Viability IC50. The method in brief:
(§3)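 Cells seeded, compound dispensed straight into wells, 5-day exposure. Plates brought to room temperature ~30 min, CellTiter-Glo luminescence measured. Normalized to DMSO (%), 4-parameter logistic fit.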

Experiment [2] has as its target K-Ras G12C(GMP-PNP) binding to BRAF RBD (Homo sapiens (Human), UniProt P01116+P62937, G12C). Briefly: Disruption of BRAF RBD interaction with K-Ras (FRET / MOA assay), K-Ras G12C. Conditions: read-out: KRAS G12C FRET IC50. In kind it is biochemical. The method in brief:
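Cpd 10-pt 3-fold dilution, top 30 μM final; Ras/CypA/BRAF RBD mix 3 h, 25° C. Add anti-His Eu-W1024 10 nM + anti-GST APC 50 nM final, 1.5 h. Readout TR-FRET ratio decrease vs DMSO → IC50.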

In experiment [3] the test system is NCI-H358 cells (K-Ras G12C). Briefly: CellTiter-Glo cell viability, NCI-H358. In kind it is cell-based, human. The note with it: Homo sapiens, NCI-H358, 120 h, K-Ras G12C, 5-day treatment; read-out: H358 Cell Viability IC50. The method in brief: as §3

The structures appear in SMILES notation.

Sequence of K-Ras G12C(GMP-PNP) binding to BRAF RBD (P01116 other isoform, or with tags, fused parts or gaps G12C): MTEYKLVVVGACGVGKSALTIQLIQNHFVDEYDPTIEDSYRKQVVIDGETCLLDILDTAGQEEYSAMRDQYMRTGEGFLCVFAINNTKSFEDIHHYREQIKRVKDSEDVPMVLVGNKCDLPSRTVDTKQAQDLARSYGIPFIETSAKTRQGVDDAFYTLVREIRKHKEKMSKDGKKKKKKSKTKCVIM
Sequence of K-Ras G12C(GMP-PNP) binding to BRAF RBD (P62937 whole entry): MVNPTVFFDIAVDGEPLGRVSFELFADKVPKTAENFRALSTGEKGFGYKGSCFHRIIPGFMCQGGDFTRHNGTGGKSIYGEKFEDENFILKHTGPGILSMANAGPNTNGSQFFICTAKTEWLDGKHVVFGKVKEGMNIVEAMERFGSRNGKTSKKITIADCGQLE
Sequence of KRAS WT (P01116 other isoform, or with tags, fused parts or gaps): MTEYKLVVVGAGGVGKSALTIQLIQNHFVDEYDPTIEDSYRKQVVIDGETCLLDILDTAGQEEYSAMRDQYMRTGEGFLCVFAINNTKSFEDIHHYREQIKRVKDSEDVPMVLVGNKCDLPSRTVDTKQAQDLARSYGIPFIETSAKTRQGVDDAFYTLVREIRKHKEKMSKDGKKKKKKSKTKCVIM
Sequence of KRAS WT (P62937 whole entry): as the sequence (P62937 whole entry) above
Sequence of NRAS WT (P01111 whole entry): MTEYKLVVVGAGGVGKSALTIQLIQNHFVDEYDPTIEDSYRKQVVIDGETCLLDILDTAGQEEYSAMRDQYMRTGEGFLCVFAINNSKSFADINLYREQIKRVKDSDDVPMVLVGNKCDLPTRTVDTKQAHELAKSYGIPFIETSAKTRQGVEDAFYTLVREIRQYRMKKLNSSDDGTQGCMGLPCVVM
Sequence of NRAS WT (P62937 whole entry): as the sequence (P62937 whole entry) above
Sequence of KRAS G12V (P01116 other isoform, or with tags, fused parts or gaps G12V): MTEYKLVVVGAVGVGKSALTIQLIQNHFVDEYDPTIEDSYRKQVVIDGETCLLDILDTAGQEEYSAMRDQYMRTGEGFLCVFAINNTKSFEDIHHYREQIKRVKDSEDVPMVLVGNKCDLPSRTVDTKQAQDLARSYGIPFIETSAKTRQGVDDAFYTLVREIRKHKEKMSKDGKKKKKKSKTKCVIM
Sequence of KRAS G12V (P62937 whole entry): as the sequence (P62937 whole entry) above
Sequence of KRAS Q61H (P01116 other isoform, or with tags, fused parts or gaps Q61H): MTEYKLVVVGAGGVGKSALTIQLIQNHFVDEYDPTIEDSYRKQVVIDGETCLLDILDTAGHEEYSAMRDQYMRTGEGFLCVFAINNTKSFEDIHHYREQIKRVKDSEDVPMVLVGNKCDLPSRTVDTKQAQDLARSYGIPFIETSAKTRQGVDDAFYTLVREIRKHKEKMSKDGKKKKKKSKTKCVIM
Sequence of KRAS Q61H (P62937 whole entry): as the sequence (P62937 whole entry) above
Sequence of KRAS G12D (P01116 other isoform, or with tags, fused parts or gaps G12D): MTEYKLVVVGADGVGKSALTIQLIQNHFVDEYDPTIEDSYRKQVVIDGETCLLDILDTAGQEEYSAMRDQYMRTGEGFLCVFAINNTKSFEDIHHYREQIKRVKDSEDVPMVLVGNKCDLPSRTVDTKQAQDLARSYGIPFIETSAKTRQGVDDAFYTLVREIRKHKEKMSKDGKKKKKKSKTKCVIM
Sequence of KRAS G12D (P62937 whole entry): as the sequence (P62937 whole entry) above
Sequence of KRAS G12C (P01116-2 other isoform, or with tags, fused parts or gaps G12C): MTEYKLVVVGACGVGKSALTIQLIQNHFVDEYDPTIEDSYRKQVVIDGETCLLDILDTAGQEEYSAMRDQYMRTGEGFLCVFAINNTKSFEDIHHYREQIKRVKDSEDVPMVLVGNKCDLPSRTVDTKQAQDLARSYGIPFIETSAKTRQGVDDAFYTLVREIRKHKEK
Sequence of KRAS G12C (P62937 whole entry): as the sequence (P62937 whole entry) above
Sequence of NRAS Q61R (P01111 whole entry Q61R): as the sequence (P01111 whole entry) above, with Q61R counted along it
Sequence of NRAS Q61R (P62937 whole entry): as the sequence (P62937 whole entry) above
Sequence of NRAS Q61K (P01111 whole entry Q61K): as the sequence (P01111 whole entry) above, with Q61K counted along it
Sequence of NRAS Q61K (P62937 whole entry): as the sequence (P62937 whole entry) above
Sequence of KRAS G13D (P01116 other isoform, or with tags, fused parts or gaps G13D): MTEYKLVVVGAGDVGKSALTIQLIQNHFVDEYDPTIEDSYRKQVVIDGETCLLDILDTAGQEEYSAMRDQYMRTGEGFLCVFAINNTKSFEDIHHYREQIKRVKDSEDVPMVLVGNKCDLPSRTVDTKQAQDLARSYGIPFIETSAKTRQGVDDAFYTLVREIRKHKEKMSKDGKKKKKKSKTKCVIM
Sequence of KRAS G13D (P62937 whole entry): as the sequence (P62937 whole entry) above
Sequence of NRAS G12C (P01111 whole entry G12C): as the sequence (P01111 whole entry) above, with G12C counted along it
Sequence of NRAS G12C (P62937 whole entry): as the sequence (P62937 whole entry) above
Sequence of KRAS G12S (P01116 other isoform, or with tags, fused parts or gaps G12S): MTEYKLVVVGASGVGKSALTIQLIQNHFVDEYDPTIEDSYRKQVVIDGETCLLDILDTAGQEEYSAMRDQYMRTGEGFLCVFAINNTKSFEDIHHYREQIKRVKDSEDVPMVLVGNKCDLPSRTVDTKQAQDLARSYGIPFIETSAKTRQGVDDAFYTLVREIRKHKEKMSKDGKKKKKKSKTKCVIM
Sequence of KRAS G12S (P62937 whole entry): as the sequence (P62937 whole entry) above
Sequence of KRAS G13C (P01116 other isoform, or with tags, fused parts or gaps G13C): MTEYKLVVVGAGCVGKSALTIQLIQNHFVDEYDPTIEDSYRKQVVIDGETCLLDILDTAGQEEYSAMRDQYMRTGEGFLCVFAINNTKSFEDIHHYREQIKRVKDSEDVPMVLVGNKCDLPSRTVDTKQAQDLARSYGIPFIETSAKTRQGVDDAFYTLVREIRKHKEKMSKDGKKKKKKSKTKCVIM
Sequence of KRAS G13C (P62937 whole entry): as the sequence (P62937 whole entry) above

Regarding `CCn1c(-c2cccnc2[C@H](C)OC)c2c3cc(ccc31)-c1csc(n1)C[C@H](NC(=O)[C@H](C(C)C)N(C)C(=O)N(C)C[C@H]1CCCN1C)C(=O)N1CCC[C@H](N1)C(=O)OCC(C)(C)C2` [Compound A473], the half-maximal inhibitory concentration (IC50) on KRAS WT fell in the range of 100 to 1000 nM; at KRAS G12D, 1000 to 10000 nM; at KRAS G12V, 1000 to 10000 nM; on KRAS G12S, 100 to 1000 nM; against NRAS Q61R, 1000 to 10000 nM; at KRAS G12C it was 100 to 1000 nM. Further, the IC50 at KRAS G13D fell in the range of 100 to 1000 nM; at NRAS G12C, 100 to 1000 nM; against KRAS Q61H, 100 to 1000 nM; against NRAS Q61K it was 1000 to 10000 nM; against NRAS WT it was 100 to 1000 nM; on KRAS G13C, 100 to 1000 nM. Besides, the values for the IC50 (with NCI-H358 (K-Ras G12C); in experiment [1]; in experiment [2]) were 10 to 100 nM, 100 to 1000 nM and 100 to 1000 nM, respectively.
With `CCn1c(-c2cccnc2[C@H](C)OC)c2c3cc(ccc31)-c1csc(n1)C[C@H](NC(=O)[C@@H]1CCO1)C(=O)N1CCC[C@H](N1)C(=O)OCC(C)(C)C2` [Compound A359], the IC50 in experiment [3] was 1000 to 10000 nM; at KRAS WT, 1000 to 10000 nM; on KRAS G12D, 1000 to 10000 nM; at KRAS G12V, 100 to 1000 nM; on KRAS G12S, 1000 to 10000 nM; against NRAS Q61R, 1000 to 10000 nM. Moreover, the 50% inhibitory concentration (IC50) on KRAS G12C was in the range of 100 to 1000 nM; at KRAS G13D, 1000 to 10000 nM; on NRAS G12C, 100 to 1000 nM; at KRAS Q61H, 100 to 1000 nM; against NRAS Q61K it was 100 to 1000 nM; on NRAS WT, 100 to 1000 nM. The half-maximal inhibitory concentration (IC50) lay in the range of 100 to 1000 nM at KRAS G13C, 10 to 100 nM with NCI-H358 (K-Ras G12C), 1000 to 10000 nM in [1] and 10 to 100 nM in experiment [2].
For the compound `CCn1c(-c2cccnc2[C@H](C)OC)c2c3cc(ccc31)-c1csc(n1)C[C@H](NC(=O)[C@H](C(C)C)N(C)C(=O)N(C)[C@H]1CCCN(C)C1)C(=O)N1CCC[C@H](N1)C(=O)OCC(C)(C)C2` [Compound A588], the IC50 in [3] lay in the range of 10 to 100 nM; on KRAS WT, 100 to 1000 nM; on KRAS G12D, 100 to 1000 nM; on KRAS G12V, 1000 to 10000 nM; at KRAS G12S, 100 to 1000 nM; against NRAS Q61R, 1000 to 10000 nM. In addition, the IC50 on KRAS G12C, on KRAS G13D, on NRAS G12C, on KRAS Q61H, on NRAS Q61K and on NRAS WT was 100 to 1000 nM each time. Further, the half-maximal inhibitory concentration (IC50) on KRAS G13C lay within 100 to 1000 nM; in the experiment with NCI-H358 (K-Ras G12C) it was 10 to 100 nM; in experiment [1], 100 to 1000 nM; in [2], 100 to 1000 nM.
For the compound `CCn1c(-c2cccnc2[C@H](C)OC)c2c3cc(ccc31)-c1csc(n1)C[C@H](NC(=O)[C@H](C(C)C)N(C)C(=O)N1CCN(C)[C@@H](c3ccccc3)C1)C(=O)N1CCC[C@H](N1)C(=O)OCC(C)(C)C2` [Compound A524], the half-maximal inhibitory concentration (IC50) in experiment [3] is 100 to 1000 nM; on KRAS WT, 100 to 1000 nM; on KRAS G12D it was 1000 to 10000 nM; at KRAS G12V, 1000 to 10000 nM; at KRAS G12S, 1000 to 10000 nM; on NRAS Q61R, 1000 to 10000 nM. Moreover, the half-maximal inhibitory concentration (IC50) at KRAS G12C was in the range of 100 to 1000 nM; at KRAS G13D, 1000 to 10000 nM; at NRAS G12C, 100 to 1000 nM; against KRAS Q61H, 100 to 1000 nM; at NRAS Q61K it was 100 to 1000 nM; on NRAS WT, 100 to 1000 nM. Also, the IC50 at KRAS G13C fell in the range of 100 to 1000 nM; in the experiment on NCI-H358 (K-Ras G12C), 10 to 100 nM; in experiment [1] it was 100 to 1000 nM; in experiment [2], 100 to 1000 nM.

The record behind these values is US20250195521A1 (Revolution Medicines, Inc., priority 2020, published 2025).
